The text below walks through data of patent US8642644B2, “Ophthamological drugs” (Duke University, priority 2004, dated 2014).

Data set [1] deals with intraocular pressure (IOP). As to the kind of experiment: Effects on intraocular pressure (IOP) after topical administration to normotensive Dutch-belted rabbits (Example 15). The following applies: for Maximum reduction of IOP (absolute) / Maximum reduction of IOP (percent): once a day for three days. The class given is in vivo, rabbit. From the text: In order to study the utility of the compounds in the treatment of glaucoma, their effects on intraocular pressure (IOP) were investigated following administration to normotensive rabbits.
5-O-Ribitol [2,3-dichloro-4-(thiophene-2-carbonyl)]phenoxyacetate: 10% and 15% in a lanolin base.
5-O-Xylitol 4-(2-phenylacryloyl)cinnamate: 0.3% and 0.6% mixed equimolar with cysteine in solution.
11-Hydroxy-3,6,9-trioxaundecyl 4-(2-phenylacryloyl)cinnamate: 0.3% and 0.6% mixed equimolar with cysteine in solution.
Eyedrops administered topically to male Dutch-belted rabbits (3-5 kg). IOP determinations made with pneumatonometer (Medtronic Solan, Jacksonville, Fla.) as the average of three measurements per eye at each timepoint. Prior to IOP determination and drug administration, eyes were topically anesthetized with proparacaine hydrochloride, 0.5% (Bausch and Lomb, Inc, Tampa, Fla.).
5-O-Ribitol [2,3-dichloro-4-(thiophene-2-carbonyl)]phenoxyacetate: Eyedrops containing the compound were administered once a day for three days. The contralateral eye was administered lanolin base. IOP was assessed in the morning and afternoon for seven days.
5-O-Xylitol 4-(2-phenylacryloyl)cinnamate: Eyedrops containing the compound were administered twice daily for 7 days. The contralateral eye was left untreated to serve as a control. IOP was assessed concurrently with drug administration.
5-O-{(9α,11α,15R)-15-[2-Benzo[b]thiophen-2-yl]-16,17,18,19,20-pentanor-5,6,13,14-tetrahydro-9,11,15-trihydroxyprostanoyl}xylitol: Eyedrops containing the compound were administered once daily for 7 days. No drug was given on days 8 and 9. The animals were then treated once daily on days 10 through 14. IOP was assessed concurrently with drug administration.
1-O-{(9α,11α,15R)-15-[2-Benzo[b]thiophen-2-yl]-16,17,18,19,20-pentanor-5,6,13,14-tetrahydro-9,11,15-trihydroxyprostanoyl}-11-hydroxy-3,6,9-trioxaundecane: Eyedrops containing the compound were administered once daily for 5 days. The contralateral eye was left untreated to serve as a control. IOP was assessed concurrently with drug administration.
11-Hydroxy-3,6,9-trioxaundecyl 4-(2-phenylacryloyl)cinnamate: Eyedrops containing the compound were administered twice daily for 7 days. The contralateral eye was left untreated to serve as a control. IOP was assessed concurrently with drug administration.

A short description of data set [2]: Activity against glaucoma (stated in words).
Data set [3] deals with intraocular pressure. Nature of the data set: Intraocular pressure lowering by ticrynafen-ribitol ester ointment in the Dutch Belted rabbit model (Example 3). The class given is in vivo. Conditions: for Maximal pressure reduction: topical, doses at 0, 24 and 48 hours. The protocol:
Ticrynafen-ribitol ester was formulated as an ointment in 5, 10, and 15% concentrations. The Dutch Belted rabbit model was used to test the formulation for both pressure lowering and side effects. Baseline intraocular pressures were obtained by placing one drop of proparacaine in each eye followed by pressure measurements utilizing a Pneumotonometer®. […] The second eye was used as a control with application of lanolin ointment without drug. Repeat doses were given at 24 hour intervals for a total of three doses (0, 24, and 48 hours). Intraocular pressures were recorded every 12 hours for one week. A total of twelve rabbits received the 5% ointment, eight rabbits the 10% ointment, and eight rabbits the 15% ointment. FIG. 4 presents the 10% data with statistically significant timepoints indicated by double asterisks.

The nature of data set [4]: Solubility in petrolatum/lanolin mixtures. The data set is classed as physicochemical.
The test system of data set [5] is intraocular pressure. As to the kind of experiment: Intraocular pressure lowering by 0.004% AR101 solution in the Dutch Belted rabbit model (Example 6). The data set is classed as in vivo. The following applies: 0.004% solution; loading dose 3 drops day 0 and 10, one drop daily days 1-7 and 10-14; versus contralateral control eye. An excerpt: The xylitol prostaglandin ester of Formula V (also called AR101) was formulated as a 0.004% solution for topical administration. The Dutch Belted Rabbit model was used to test the formulation for both pressure lowering and side effects. Baseline intraocular pressures were obtained by placing one drop of proparacaine in each eye followed by pressure measurements with a Pneumotonometer®. One eye of each rabbit received a loading dose of 3 drops 0.004% AR101 on day 0 and day 10. One drop of AR101 was given daily on days 1-7 and 10-14. No drug was given on days 8 and 9. The contralateral control eye received balanced salt solution drops without AR101. Intraocular pressure measurements were recorded every 12 hours for two weeks.

The mark [6] stands for this setting: 0.3% mixed equimolar with cysteine in solution, twice daily for 7 days.
The mark [7] stands for this setting: 0.6% mixed equimolar with cysteine in solution, twice daily for 7 days.
The mark [8] stands for this setting: 0.004% in solution, once daily for 5 days.
The mark [9] stands for this setting: 0.02% in solution, once daily for 5 days.
Setting [10] is: 10% in lanolin base, at 36 hours.
Where [11] appears, read: 15% in lanolin base, at 60 hours.
Where [12] appears, read: 0.004% in solution, once daily days 1-7 and 10-14.

Description for pig liver esterase: Since the sugar alcohol moiety imparts water-solubility to the compounds, an assay can be readily set up to determine the optimal sugar alcohol for each drug moiety based on the release rate thus: A commercially-available preparation of esterase, such as porcine liver esterase (Sigma Corp., St. Louis), is prepared at a standard concentration. The drug-sugar alcohol combination, dissolved in methanol or a methanol-water or methanol-acetonitrile combination, is added dropwise to the esterase and the rate at which the compound is released from the alcohol is determined. The analytical technique used to determine the amount of free acid will vary with the acid used, but a typical procedure would be by TLC, or reverse-phase TLC, or HPLC or by Mass Spectroscopy. One skilled in the art can readily determine the optimal analytical method for each sugar-acid pair evaluated. This assay can easily be adapted to be run in a 96-well plate format, or other high-throughput method of determining activity.

Regarding `C=C(C(=O)c1ccc(C=CC(=O)OCCOCCOCCOCCO)cc1)c1ccccc1` [11-Hydroxy-3,6,9-trioxaundecyl 4-(2-phenylacryloyl)cinnamate], in data set [1] (setting [6]), the “Maximum reduction from untreated control” value is listed as −1.7 mmHg and the “Maximum reduction from untreated control (percent)” value is 8%. In addition, in data set [1] (setting [7]), the “Maximum reduction from untreated control” value is recorded as −1.9 mmHg and the “Maximum reduction from untreated control (percent)” value was 8%.
As for `O=C(CCCCCC[C@@H]1[C@@H](CCC(O)c2cc3ccccc3s2)[C@H](O)C[C@@H]1O)OCCOCCOCCOCCO` (stereo partly drawn) [1-O-{(9α,11α,15R)-15-[2-Benzo[b]thiophen-2-yl]-16,17,18,19,20-pentanor-5,6,13,14-tetrahydro-9,11,15-trihydroxyprostanoyl}-11-hydroxy-3,6,9-trioxaundecane], in data set [1] (setting [8]), the “Maximum reduction from untreated control” value is given as −2.8 mmHg and the “Maximum reduction from untreated control (percent)” value is listed as 12%. Moreover, in data set [1] (setting [9]), the “Maximum reduction from untreated control” value is −3.0 mmHg and the “Maximum reduction from untreated control (percent)” value amounted to 17%.
Regarding `C=C(C(=O)c1ccc(/C=C/C(=O)OC[C@@H](O)[C@H](O)[C@@H](O)CO)cc1)c1ccccc1` [Formula VIII, 5-O-Xylitol 4-(2-phenylacryloyl)cinnamate], the “Maximum reduction from untreated control” value in data set [1] (setting [6]) and in data set [1] (setting [7]) was −2.4 mmHg in each case. Further, the figures for the “Maximum reduction from untreated control (percent)” value in data set [1] (setting [6]) and in data set [1] (setting [7]) were 11% and 13%, respectively.
In the case of `O=C(O)COc1ccc(C(=O)c2cccs2)c(Cl)c1Cl` [Formula IV, Ticrynafen], in data set [2], the “Activity against glaucoma, in words” value is given as “little or no activity”.
Take `O=C(O)CCCCCC[C@@H]1[C@@H](CC[C@@H](O)c2cc3ccccc3s2)[C@H](O)C[C@@H]1O` [Formula II]: in data set [2], the “Activity against glaucoma, in words” value is listed as “strong activity against glaucoma”.
For the molecule `O=C(COc1ccc(C(=O)c2cccs2)c(Cl)c1Cl)OC[C@H](O)[C@H](O)[C@H](O)CO` [Formula III, 5-O-Ribitol [2,3-dichloro-4-(thiophene-2-carbonyl)]phenoxyacetate], the figures for the “Maximum reduction of IOP (absolute)” value in data set [1] (setting [10]) and in data set [1] (setting [11]) were −4.3 and −3.0, respectively. In addition, the “Maximum reduction of IOP (percent)” value amounted to 18% in data set [1] (setting [10]) and 13% in data set [1] (setting [11]). Also, the Maximal pressure reduction in the data set on intraocular pressure [3] (5% ointment, maximum at 54 hours) came out at 11%; in the data set with intraocular pressure [3] (10% ointment, maximum at 36 hours), 18%; in the data set with intraocular pressure [3] (15% ointment, maximum at 60 hours) it was 13%. Further, in the data set with intraocular pressure [3] (Dutch-Belted white rabbits, petrolatum/lanolin ointment), the “Reduction of intraocular pressure (IOP), in words” value is “reduces intraocular pressure (IOP) in a dose-dependent fashion”. The “Solubility in petrolatum/lanolin mixtures” value in data set [4] is listed as “completely soluble”.
For the molecule `O=C(CCCCCC[C@@H]1[C@@H](CC[C@@H](O)c2cc3ccccc3s2)[C@H](O)C[C@@H]1O)OC[C@@H](O)[C@H](O)[C@@H](O)CO` [Formula V, 5-O-{(9α,11α,15R)-15-[2-Benzo[b]thiophen-2-yl]-16,17,18,19,20-pentanor-5,6,13,14-tetrahydro-9,11,15-trihydroxyprostanoyl}xylitol], the “Hydrolysis by pig liver esterase” value in the data set with pig liver esterase was “readily hydrolyzed”. Also, in data set [1] (setting [12]), the “Significant reductions of IOP from baseline (days)” value is “Significant reductions from baseline on days 2, 3, 5, 11, and 12”; the “Significant reductions of IOP from baseline and untreated control (days)” value was “Significant reductions from baseline and untreated control on days 3, 5, and 11”. The “Statistically significant pressure reductions between eyes (days)” value with intraocular pressure [5] was “Statistically significant pressure reductions between eyes were observed on days 3, 7, and 11”.
